Laboratory results: paper PMC8842601, “Antimicrobial, Cytotoxic and Oxidative Stress Inhibitory Activities of Terpenoids and Flavonols from Senegalia nigrescens (Oliv.) P.J.H. Hurter” (Iranian Journal of Pharmaceutical Research : IJPR, 2021)
In brackets after ≈: the same amount, converted by molar mass.

Assays:
S. aureus = test system: S. aureus; parameters: method as in PMID 35914415; settings: reducing cell surface hydrophobicity and membrane permeability; cited from earlier work
[1] = test system: Escherichia coli, Staphylococcus aureus and Candida albicans; assay: Microplate serial dilution MIC assay, stated across the three strains; assay type: cell-based; settings: across the three strains (E. coli, S. aureus, C. albicans)
Experimental: Three microorganisms used in this study, two bacterial strains (Escherichia coli ATCC 25922 - Gram-negative and Staphylococcus aureus ATCC 25923 - Gram-positive) and a fungus (Candida albicans ATCC 10231) were procured from Anatech Instruments (Pty) Ltd, Randburg, Gauteng, South Africa (Anatech, Kwik-stick®). Escherichia coli and S. aureus were cultured in nutrient agar while the fungus (C. albicans ATCC 10231) was cultured on sabouraud dextrose agar (SDA) and incubated for 24 h under aerobic conditions at 37 °C. Pure colonies of microorganisms from the agar were transferred onto nutrient broth and sabouraud dextrose broth (SDB) to obtain an overnight culture. Compounds 1 – 6 were weighed and dissolved in 5% Dimethyl sulfoxide (DMSO) to a final working stock solution of 4 mg/mL. Standard antibiotics Ciprofloxacin and Amphotericin-B were also dissolved in 5% DMSO. The samples were kept at 20 °C in the dark until used. Antimicrobial activity was done using the microplate serial dilution method by Eloff, ([14]). The minimum inhibitory concentration (MIC) was defined as the lowest concentration of the compound capable of inhibiting microbial growth. […] A staining reagent, 50 µL Resazurin sodium salt (0.2 mg/mL) was used as an indicator of microbial growth and the MIC was visually determined ([15]).

MDA-MB-231 cells = assay: MTT cytotoxicity assay on breast cancer cells; assay type: cell-based, human; settings: for IC50: Homo sapiens, MDA-MB-231 breast cancer cells, MTT, 24 h; for selectivity index (SI): toxicity on RAW264.7 compared to MDA-MB-231 cancer cells
Experimental: (§1) Cytotoxicity and antiproliferative effects of compounds were evaluated against Murine macrophage cells (RAW264.7) and breast adenocarcinoma cancer cells (MDA-MB-231) using the spectrophotometric, 3-(4,5-dimethylthiazol-2-yl)-2,5-diphenyltetrazolium bromide (MTT) assay ([16]). Cells (5 × 10^4 cell/well) were seeded in Dulbecco’s modified eagle’s medium (DMEM; Gibco) in a 96 well plate for 24 h incubation at 37 °C in 5% CO2 and treated with compounds (2.5 - 200 µg/mL) and positive control, Doxorubicin (2.5 - 200 µM). Untreated cells and 5% DMSO treated cells were assayed as negative and solvent control, respectively. After 24 h incubation, 20 µL MTT dye (5 mg/mL) was pipetted in all wells including wells with untreated cells, and incubated for 4 h. The medium was aspirated and 100 µL of DMSO was added to all the wells to dissolve the formazan crystals and the optical density (OD) was measured after an hour at 570 nm using a microplate reader.

RAW264.7 cells [2] = assay: MTT cytotoxicity assay on normal macrophage cells; assay type: cell-based; settings: Mus musculus, RAW264.7 normal murine macrophage cells, 24 h
Experimental: as §1

[3] = test system: Candida albicans ATCC 10231; assay: Microplate serial dilution MIC assay (resazurin); assay type: cell-based; settings: ATCC10231, C. albicans ATCC 10231, 24 h at 37 °C, tested 7.8-1000 µg/mL
Experimental: (§2) Three microorganisms used in this study, two bacterial strains (Escherichia coli ATCC 25922 - Gram-negative and Staphylococcus aureus ATCC 25923 - Gram-positive) and a fungus (Candida albicans ATCC 10231) were procured from Anatech Instruments (Pty) Ltd, Randburg, Gauteng, South Africa (Anatech, Kwik-stick®). Escherichia coli and S. aureus were cultured in nutrient agar while the fungus (C. albicans ATCC 10231) was cultured on sabouraud dextrose agar (SDA) and incubated for 24 h under aerobic conditions at 37 °C. Pure colonies of microorganisms from the agar were transferred onto nutrient broth and sabouraud dextrose broth (SDB) to obtain an overnight culture. Compounds 1 – 6 were weighed and dissolved in 5% Dimethyl sulfoxide (DMSO) to a final working stock solution of 4 mg/mL. Standard antibiotics Ciprofloxacin and Amphotericin-B were also dissolved in 5% DMSO. The samples were kept at 20 °C in the dark until used. Antimicrobial activity was done using the microplate serial dilution method by Eloff, ([14]). The minimum inhibitory concentration (MIC) was defined as the lowest concentration of the compound capable of inhibiting microbial growth. The microorganisms were adjusted according to 0.5 McFarland standard solution to a final concentration of 1.5 × 10^4 CFU/mL in sterile 0.85% sodium chloride (NaCl) solution. Compounds were tested at the concentration range of 7.8-1000 µg/mL in 96 well plates and incubated with microorganisms for 24 h at 37 °C. Ciprofloxacin and Amphotericin-B were used as positive controls for bacterial and fungal assays, respectively. In addition, sterile distilled 5% DMSO was used as a negative control. A staining reagent, 50 µL Resazurin sodium salt (0.2 mg/mL) was used as an indicator of microbial growth and the MIC was visually determined ([15]).

[4] = test system: Escherichia coli ATCC 25922; assay: Microplate serial dilution MIC assay (resazurin); assay type: cell-based; settings: ATCC25922, E. coli ATCC 25922, 24 h at 37 °C, tested 7.8-1000 µg/mL
Experimental: as §2

[5] = test system: Staphylococcus aureus ATCC 25923; assay: Microplate serial dilution MIC assay (resazurin); assay type: cell-based; settings: ATCC25923, S. aureus ATCC 25923, 24 h at 37 °C, tested 7.8-1000 µg/mL
Experimental: as §2

RAW264.7 cells [6] = assay: LPS-induced intracellular ROS production (H2DCF-DA assay); assay type: cell-based, murine; settings: RAW264.7, compound 10 µg/mL, LPS 10 µg/mL; for ROS production level: relative to LPS-treated cells
Experimental: Lipopolysaccharide (LPS)-induced reactive oxygen species (ROS) production was probed using an oxidative cell-permeant fluorescent dye 2',7'-dichlorodihydrofluorescein diacetate (H2DCF-DA) ([17]). RAW264.7 cells (5 × 10^4 cells/well) were seeded overnight into a 96 well plate and treated with compounds (10 µg/mL) at concentrations ≤ IC50 values and LPS (10 µg/mL) for 24 h at 37 °C in 5% CO2 rich incubator, then 10 μM H2DCF-DA dye (100 µL) was added for an hour. The fluorescence intensity which correlates to ROS production was measured on a microplate reader at 485 and 535 nm excitation and emission, respectively. Data obtained were subjected to analysis using GraphPad Prism (version 8.2).
Inflammation is a physiological response stimulated by the organism as a way of overcoming pathogenic events employed as a defense mechanism. However, an unregulated inflammatory response can lead to several diseases, including cancer. ROS-inducing approaches rely on the fact that increasing the ROS level over the cytotoxic threshold can result in cellular impairment, damaging DNA, RNA, proteins and lipids in normal cells, even though macrophage cells cannot phagocytize cancerous cells, but release a reasonable amount of pro-inflammatory cytokines that quench cancer cells yet are cytoprotective to normal cells ([6]). In this regard, it was considered that the compounds tested would be able to reduce the production of LPS-induced ROS in normal macrophages. Determination of ROS production in RAW264.7 cells was conducted using the non-toxic IC50 value of 10 µg/mL for all compounds (Table 2). Cells were pre-treated with compounds for 20 h and LPS was added in all treated cells except the untreated control cells. Thereafter H2DCFDA was introduced to the cells. […]
Figure 3 Effects of S. nigrescens compounds 1-6 on LPS-induced ROS production by RAW264.7 cells measured by a micro plate reader (Thermo Scientific Varioskan Flash). […] Experiments were conducted in triplicate and data is expressed as the mean ± SD with p-values calculated against control ^**p < 0.01; ^***p < 0.001

LPS-induced ROS = test system: LPS-induced ROS; parameters: method as in PMID 18254591, PMID 30302324; settings: read-out: IC50, inhibition of LPS-induced ROS; cited from earlier work
LPS-induced RNS = test system: LPS-induced RNS; parameters: method as in PMID 18254591, PMID 30302324; settings: read-out: IC50, inhibition of LPS-induced RNS; cited from earlier work

| SMILES | MIC (S. aureus) [µg/mL] | MIC [1] [µg/mL] | IC50 (MDA-MB-231 cells) [µg/mL] | IC50 (RAW264.7 cells [2]) [µg/mL] | selectivity index (SI) (MDA-MB-231 cells) | MIC [3] [µg/mL] | MIC [4] [µg/mL] | MIC [5] [µg/mL] | reduction of ROS (RAW264.7 cells [6]) | IC50 (LPS-induced ROS) [µM] | IC50 (LPS-induced RNS) [µM] | ROS production level (RAW264.7 cells [6]) |
| --- | --- | --- | --- | --- | --- | --- | --- | --- | --- | --- | --- | --- |
| O=c1cc(-c2ccc(O)cc2)oc2c([C@@H]3O[C@H](CO)[C@@H](O)[C@H](O)[C@H]3O)c(O)cc(O)c12 [Apigenin-8-C-glucoside] | 126 (≈ 291 µM) | – | – | – | – | – | – | – | – | – | – | – |
| C=C(C=O)C1CCC2(C)CCC3(C)C(CCC4C5(C)CCC(O)C(C)(C)C5CCC43C)C12 (stereo not drawn) [Compound 1, 3β-hydroxy-20(29)-en-lupan-30-al] | – | ≥ 250 | 26.6 (≈ 60.5 µM) | 16.9 (≈ 38.3 µM) | – | – | – | – | – | – | – | – |
| C=C(CO)C1CCC2(C)CCC3(C)C(CCC4C5(C)CCC(O)C(C)(C)C5CCC43C)C12 (stereo not drawn) [Compound 2, 30-hydroxylup-20(29)-en-3β-ol] | – | ≥ 250 | 11.9 (≈ 26.8 µM) | 22.8 (≈ 51.5 µM) | 1.92 | – | – | – | – | – | – | – |
| CC1=CC23CCC4C(C)(CO)CCCC4(CO)C2CCC1C3 (stereo not drawn) [Compound 3, ent-kaur-15-en-18,20-diol] | – | – | 12.6 (≈ 41.4 µM) | 18.5 (≈ 60.8 µM) | 1.46 | 62.5 (≈ 205 µM) | 250 (≈ 821 µM) | 125 (≈ 411 µM) | – | – | – | – |
| O=c1c(O)c(-c2ccc(O)c(O)c2)oc2c(O)c(O)ccc12 [Compound 4, melanoxetin] | – | – | 22.2 (≈ 73.4 µM) | 15.8 (≈ 52.3 µM) | – | – | – | – | approximately 40% | 12.5 | 6.9 | – |
| O=c1c(O)c(-c2ccc(O)c(O)c2)oc2cc(O)cc(O)c12 [Compound 5, quercetin] | – | – | 20.6 (≈ 68.2 µM) | 22.6 (≈ 74.8 µM) | 1.09 | 31.2 (≈ 103 µM) | 62.5 (≈ 207 µM) | 31.2 (≈ 103 µM) | – | – | – | below 50% |
| COc1c(-c2ccc(O)c(O)c2)oc2cc(O)cc(O)c2c1=O [Compound 6, quercetin-3-O-methyl ether] | – | – | 14 (≈ 44.4 µM) | 28.7 (≈ 90.8 µM) | 2.04 | 31.2 (≈ 98.8 µM) | 62.5 (≈ 198 µM) | 31.2 (≈ 98.8 µM) | – | – | – | below 50% |
| COc1cccc2c1C(=O)c1c(O)c3c(c(O)c1C2=O)C[C@@](O)(C(=O)CO)C[C@@H]3O[C@H]1C[C@H](N)[C@H](O)[C@H](C)O1 [doxorubicin, reference compound] | – | – | 9.35 (≈ 17.2 µM) | 10.6 (≈ 19.5 µM) | 1.13 | – | – | – | – | – | – | – |
